From patent publication EP0072352B1, “Benzazepin-2-ones, process for their preparation, pharmaceutical preparations containing these compounds and the compounds for therapeutical use” (CIBA-GEIGY AG, priority 1981, dated 1983)
pIC50: −log10 of the molar value. Structures can show the parent of a compound that is named as a salt. Where two headings read alike, the source gives them in different places.

Columns and labels:
[1] = biological target: T1, Angiotensin-umwandelnde Enzym (ACE) (Oryctolagus cuniculus, UniProt P12822); assay: In vitro ACE inhibition (ACEI), rabbit lung tissue preparation, hippuryl-histidyl-leucine substrate, method of Cheung and Cushman; type: biochemical, Kaninchen
T1 construct: Es wurde ein Kaninchen-Lungengewebe-Präparat; from tissue; host or cells: lung of adult male rabbits
T1 sequence (P12822 34-1310): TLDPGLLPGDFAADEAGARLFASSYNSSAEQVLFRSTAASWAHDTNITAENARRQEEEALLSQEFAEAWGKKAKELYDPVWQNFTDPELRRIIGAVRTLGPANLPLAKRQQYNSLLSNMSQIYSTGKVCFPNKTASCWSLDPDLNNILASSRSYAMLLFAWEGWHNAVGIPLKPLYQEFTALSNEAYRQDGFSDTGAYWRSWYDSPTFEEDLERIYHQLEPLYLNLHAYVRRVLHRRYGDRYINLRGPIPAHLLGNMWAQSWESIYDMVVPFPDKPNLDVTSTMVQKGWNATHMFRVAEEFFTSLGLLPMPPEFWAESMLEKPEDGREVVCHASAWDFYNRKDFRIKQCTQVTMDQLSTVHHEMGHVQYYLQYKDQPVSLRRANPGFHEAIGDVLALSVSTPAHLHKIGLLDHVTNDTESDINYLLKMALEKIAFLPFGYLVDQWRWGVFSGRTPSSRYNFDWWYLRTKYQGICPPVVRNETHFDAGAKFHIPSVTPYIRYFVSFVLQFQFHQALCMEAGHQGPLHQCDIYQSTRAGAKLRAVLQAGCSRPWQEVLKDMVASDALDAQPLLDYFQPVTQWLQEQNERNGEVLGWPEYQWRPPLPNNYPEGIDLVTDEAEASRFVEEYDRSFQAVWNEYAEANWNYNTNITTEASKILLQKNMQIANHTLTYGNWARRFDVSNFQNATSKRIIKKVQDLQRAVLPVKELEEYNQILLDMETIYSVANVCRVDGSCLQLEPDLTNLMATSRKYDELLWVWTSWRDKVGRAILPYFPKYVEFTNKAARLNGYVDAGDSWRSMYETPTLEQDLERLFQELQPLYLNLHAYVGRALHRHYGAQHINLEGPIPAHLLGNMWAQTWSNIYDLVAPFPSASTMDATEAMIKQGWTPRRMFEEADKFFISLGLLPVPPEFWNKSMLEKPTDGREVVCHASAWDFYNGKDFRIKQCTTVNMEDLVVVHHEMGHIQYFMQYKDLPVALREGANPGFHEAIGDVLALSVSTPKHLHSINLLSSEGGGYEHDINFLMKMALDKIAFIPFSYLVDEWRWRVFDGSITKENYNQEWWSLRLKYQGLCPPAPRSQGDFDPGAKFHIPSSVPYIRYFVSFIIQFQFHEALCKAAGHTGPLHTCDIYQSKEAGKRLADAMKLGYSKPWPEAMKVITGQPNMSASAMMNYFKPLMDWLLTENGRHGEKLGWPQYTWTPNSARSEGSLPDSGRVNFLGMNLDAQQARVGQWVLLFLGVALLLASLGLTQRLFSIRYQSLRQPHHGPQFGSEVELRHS
Description: Die in-vitro-Hemmung des Enzyms, welches das Angiotensin umwandelt, kann bei den Verbindungen dieser Erfindung analog zu Biochim. Biophys. Acta 293, 451 (1973) nachgewiesen werden. Gemäß dieser Methode werden die genannten Verbindungen in ungefähr 1 mMol-Konzentrationen in Phosphatpuffer aufgelöst. Zu 100 Mikroliter von Lösungen der Testverbindung in Phosphatpuffer, welche man auf die gewünschte Konzentration verdünnt, gibt man zuerst 100 Mikroliter von 5 millimolarem Hippuryl-histidylleucin in Phosphatpuffer und dann 50 µl des Angiotensin-umwandelnden Enzyms. Dieses Enzym wird aus Lungen von erwachsenen männlichen Kaninchen in Tris-Puffer, der Kalium- und Magnesiumchlorid und auch Rohrzucker enthält, hergestellt. Die genannten Lösungen werden 30 Minuten bei 37 °C inkubiert, und die weitere Reaktion wird durch Hinzufügen von 0,75 ml einer 0,6-normalen wäßrigen Natriumhydroxidlösung gestoppt. Dann gibt man bei Zimmertemperatur 100 Mikroliter einer 0,2 %-igen Lösung von o-Phthalaldehyd in Methanol und nach 10 Minuten 100 Mikroliter 6n-Chlorwasserstoffsäure dazu. Diese Proben werden in einem Spektrophotometer bei 360 nm mit Wasser verglichen, und ihre optische Dichte wird bestimmt. Diese Werte werden durch einen Konversionsfaktor einer Standard-Kurve angepaßt, wobei man die während der genannten Inkubation von 30 Minuten gebildete Histidyl-leucin-Menge in Nanomolen erhält. Die Ergebnisse werden, um den IC50-Wert zu bestimmen, gegenüber den Wirkstoff-Konzentrationen graphisch als Kurve dargestellt. Der IC50-Wert bedeutet diejenige WirkstoffKonzentration, welche die Hälfte der Aktivität einer Kontrollprobe, die keinen Wirkstoff enthält, ergibt. Als Illustration der Erfindung sei auf das « höher schmelzende 1-Carboxymethyl-3-(1-carboxy-3-phenylpro- pylamino)-2,3,4,5-tetrahydro-1H-[1]-benzazepin-2-on des Beispiels 9 und auf das entsprechende S,S-Enantiomere des Beispiels 19 hingewiesen, welche einen lC50-Wert von 5,2 × 10^-9 M bzw. 1,7 × 10^-9 M aufweisen. Das entsprechende « niedriger schmelzende » 1-Carboxymethyl-3-(1-carboxy-3-phenylpropy- iamino)-2,3,4,5-tetrahydro-1H-[1] benzazepin-2-on des Beispiels 8 zeigt einen lC50-Wert von 5,8 ×10^-8 M.
Die Prüfung der Wirkung von Verbindungen ist gemäss den Methoden für die Auswertung der Hemmung des Enzyms, welches das Angiotensin umwandelt [angiotensin converting enzyme = ACE] durchgeführt worden. In der biochemischen Beurteilung der in vitro ACE-Hemmung [ACE inhibition = A-CEI] wird die Aktivität einer Verbindung im Kaninchen-Lungengewebe bestimmt.
Es wurde ein Kaninchen-Lungengewebe-Präparat [Das and Saffer, J. Biol. Chem. 250 : 6762 (1975) für die Bestimmung von ACE nach der Methode von Cheung und Cushman [Cheung and Cushman, Biochim. Biophys. Acta 293, 451 (1973)] verwendet. In dieser Methode wird die Menge des Histidyl-leucins. welche aus einem synthetischen Substrat innerhalb einer Inkubation von 30 Minuten bei 37° freigesetzt wird, spektrophotometrisch bestimmt. Die lC50-Werte der ACE-Hemmung werden dann graphisch berechnet. Der lC50-Wert ist die Konzentration (in Mol) der getesteten Verbindung, welche die in Abwesenheit der Testsubstanz entstehende Menge des Histidyl-leucins um 50 % herabsetzt.

[2] = tested on: durch Angiotensin I (AI) hervorgerufene Blutdrucksteigerung; assay: Inhibition of the angiotensin I (AI) induced blood pressure rise after intravenous administration of the test compound; type: in vivo, Ratten; details: for % AI Hemmung: rat, mean inhibition within 30 min after administration
Description: Die Verbindungen der Erfindung zeigen nach intravenöser oder oraler Verabreichung eine hemmende Wirkung gegen die durch Angiotensin I hervorgerufene Blutdrucksteigerung auch an normotensiven Ratten. Das Angiotensin 1 wird durch das genannte Umwandlungsenzym zu der stark blutdrucksteigernden Substanz Angiotensin II hydrolysiert. Die Hemmung des genannten Enzyms blockiert die Bildung von Angiotensin II aus Angiotensin I. In dieser Weise wird die durch Angiotensin I provozierte Blutdrucksteigerung abgeschwächt.
Der entsprechende in-vivo-Test mit den intravenös verabreichten Verbindungen wird mit männlichen normotensiven Ratten, welche mit dem Natriumsalz der 5-Äthyl-5-(1-methylpropyl)-2-thiobarbitursäure narkotisiert sind, durchgeführt. Eine femorale Arterie und eine Wadenvene werden mit je einer Hohlnadel für die direkte Messung des Blutdrucks und für die intravenöse Verabreichung des Angiotensins I und einer erfindungsgemäßen Verbindung versehen. Nach der Stabilisierung des basalen Blutdrucks wird die Druckänderung nach drei, in 5-minütigen Intervallen, i. v. durchgeführten Reizungen mit 333 ng/kg Angiotensin I bestimmt. Solche Druckänderungen werden wieder nach 5,10,15, 30 und 60 Minuten nach intravenöser Verabreichung der zu prüfenden Verbindung bestimmt. Die letztgenannten Druckänderungen werden mit den Anfangswerten verglichen. Jede festgestellte Abnahme vom Ansprechen des Blutdrucks ist ein Hinweis auf die Hemmung des Enzyms, welches das Angiotensin I umwandelt. Als Illustration der Erfindung sei auf das « höher schmelzende » 1-Carboxymethyl-3-(1-äthoxycarbonyl-3-phenylpropylamino)-2,3,4,5-tetrahydro-1H-[1] benzazepin-2-on des Beispiels 1 und auf das entsprechende S,S-Enantiomere des Beispiels 12 hingewiesen. Diese hemmen vollständig die Blutdrucksteigerung nach Angiotensin I-Reizung während 30 Minuten nach intravenöser Verabreichung einer Dosis von 1 mg/kg pro Substanz.
In der in vivo Prüfungsmethode wird zuerst durch Verabreichung des Angiotensins I (AI) an das Versuchstier eine Blutdrucksteigerung hervorgerufen. Es wird dann die Hemmung der einzelnen Verbindungen auf diese Blutdrucksteigerung gemessen.
11. Methode der Hemmung der durch Angiotensin I (AI) hervorgerufenen Blutdrucksteigerung, durch intravenöse Verabreichung der Testverbindung (% AI-Hemmung)
In diesen Untersuchungen wird wie oben beschrieben, je ein Katheter in eine femurale Arterie und in eine Wadenvene der Ratte eingeführt.
Der arterielle Druck wurde von dem Arterienkatheter aus registriert, während man Angiotensin I (AI) und die einzelnen Testverbindungen durch den Venenkatheter injiziert hatte. Die Hemmung der durch Angiotensin I verursachten Blutdrucksteigerung ist als prozentuelle Abnahme des vor der Behandlung erhaltenen Kontrollwertes der Blutdrucksteigerung ausgedrückt und in der Tabelle als Durchschnittswert der Hemmung innerhalb 30 Minuten nach Verabreichung der Testsubstanz angegeben. (Siehe Tabelle Seite 41 f.)

[3] = tested on: spontan hypertensiven Ratten; assay: Antihypertensive effect in spontaneously hypertensive rats, indirect measurement of systolic blood pressure (tail cuff), oral dosing; type: in vivo; details: peroral dose of 1 mg/kg
Description: Die in vivo blutdrucksenkende Wirkung wird entweder direkt mit einem Katheter, der in die femorale Arterie des Versuchstieres eingeführt ist, oder indirekt durch Sphygmomanometrie am Rattenschwanz, und einem Übertragungsinstrument registriert. Der Blutdruck wird vor und nach der Verabreichung des Wirkstoffes in mm Hg bestimmt.
So sind die antihypertensiven Wirkungen in spontan hypertensiven Ratten durch indirekte Messung des systolischen Blutdrucks nachweisbar. Nicht narkotisierte Ratten werden einzeln in Käfigen, welche ihre Bewegung einschränken, in eine leicht geheizte Kammer gebracht. Ein Puls-Sensor wird innerhalb einer aufblasbaren Manschette am Schwanz jeder Ratte angebracht. Die Manschette wird aufgeblasen, um die Schwanz-Arterie zu schließen. Der Druck in der Manschette wird kontinuierlich reduziert, und der systolische Druck entspricht demjenigen Druck in der Manschette, bei welchem die Pulswellen wieder auftreten. Nach der Registrierung von Kontrollwerten des Blutdrucks und der Herzfrequenz werden die Testverbindungen peroral einmal täglich an vier aufeinanderfolgenden Tagen verabreicht. Zusätzliche Blutdruckmessungen werden üblicherweise nach 2,0, 4,0 und 23,5 Stunden nach jeder täglichen Dosis vorgenommen. Die Werte werden mit denjenigen von Ratten, welche lediglich mit der Trägersubstanz behandelt worden sind, verglichen. […]

[4] = ACE from rabbit lung, 30 min at 37 °C, read-out: IC50-Wert
[5] = rabbit lung tissue preparation, 30 min incubation at 37°, read-out: In vitro ACEI IC50

Compound	pIC50 [1, 4]	pIC50 [1, 5]	% AI Hemmung ([2]; i.v. Dosis 0.1 mg/kg)	% AI Hemmung ([2]; i.v. Dosis 0.03 mg/kg)	% AI Hemmung ([2]; i.v. Dosis 0.06 mg/kg)	% AI Hemmung ([2]; i.v. Dosis 0.3 mg/kg)	% AI Hemmung ([2]; i.v. Dosis 1.0 mg/kg)	Blutdruck gesenkt (antihypertensiver Effekt) [3]	Hemmung der Blutdrucksteigerung nach Angiotensin I-Reizung ([2]; 1 mg/kg i.v., anaesthetised male normotensive rats, during 30 min after administration, 333 ng/kg angiotensin I)
O=C(O)CN1C(=O)C(NC(CCc2ccccc2)C(=O)O)CCc2ccccc21 (single isomer, unassigned) [Beispiel 8, 1-Carboxymethyl-3-(1-carboxy-3-phenylpropylamino)-2,3,4,5-tetrahydro-1H-[1] benzazepin-2-on]	7.24								
CCOC(=O)[C@@H](CCc1ccccc1)N[C@H]1CCc2ccccc2N(CC(=O)O)C1=O [Beispiel 5, 1-Carboxymethyl-3-(1-äthoxycarbonyl-3-phenylpropylamino)-2,3,4,5,-tetrahydro-1H-[1] benzazepin-2-on]		6.70	37%						
CCOC(=O)[C@H](CCc1ccccc1)N[C@H]1CCc2ccccc2N(CC(=O)O)C1=O [12 HCl Salz]		6.40	82%	29%	74%	95%	100%		
O=C(O)CN1C(=O)C(NC(CCc2ccccc2)C(=O)O)CCc2ccccc21 (single isomer, unassigned) [Beispiel 9, 1-Carboxymethyl-3-(1-carboxy-3-phenylpropylamino)-2,3,4,5-tetrahydro-1H-[1]-benzazepin-2-on]	8.28	8.30	80%	40%		93%			
CCOC(=O)[C@H](CCc1ccccc1)N[C@H]1CCc2ccccc2N(CC(=O)O)C1=O [Beispiel 12, 1-Carboxymethyl-3S-(1S-äthoxycarbonyl-3-phenylpropylamino)-2,3,4,5-tetrahydro-1H-[1] benzazepin-2-on]								30 mm Hg	vollständig
